# Measured values as given in ChEMBL document CHEMBL3864162, “Discovery of potent inhibitors of the lysophospholipase autotaxin” (Bioorg Med Chem Lett, 2016).
# Legend:
# Autotaxin [1] = target: T1, Autotaxin (Homo sapiens, UniProt Q13822); assay: Inhibition of ATX in human plasma assessed as decrease in hydrolysis of lysophosphatidylcholine by measuring choline release after 24 hrs by horseradish peroxidase/choline oxidase-coupled assay; format: cell-free
# [2] = Intrinsic clearance in CD1 mouse liver microsomes assessed per gram of liver at 1 uM in presence of NADPH regenerating system measured up to 45 mins by UPLC/MS/MS analysis; format: ADME; conditions: 0.75 h
# [3] = Half life in CD1 mouse blood at 1 mg/kg, iv administered as bolus dose measured up to 7 hrs by UPLC/MS/MS spectrometry analysis; format: ADME, organism-based
# [4] = Blood clearance in CD1 mouse at 1 mg/kg, iv administered as bolus dose measured up to 7 hrs by UPLC/MS/MS spectrometry analysis; format: ADME, organism-based
# [5] = Volume of distribution at steady state in CD1 mouse at 1 mg/kg, iv administered as bolus dose measured up to 7 hrs by UPLC/MS/MS spectrometry analysis; format: ADME, organism-based; conditions: in vivo, read-out: Vdss
# Autotaxin [6] = target: T1, Autotaxin; assay: Inhibition of human recombinant ATX using Rac-1-Palmitoyl-glycero-3-phosphocholine as substrate incubated for 2 hrs using ADHP fluorogenic peroxidase substrate by horseradish peroxidase/choline oxidase-coupled assay
# [7] = Intrinsic clearance in human liver microsomes assessed per gram of liver at 1 uM in presence of NADPH regenerating system measured up to 45 mins by UPLC/MS/MS analysis; format: ADME; conditions: 0.75 h
# [8] = Half life in CD1 mouse blood at 0.5 mg/kg, iv administered as bolus dose measured up to 7 hrs by UPLC/MS/MS spectrometry analysis; format: ADME, organism-based
# [9] = Blood clearance in CD1 mouse at 0.5 mg/kg, iv administered as bolus dose measured up to 7 hrs by UPLC/MS/MS spectrometry analysis; format: ADME, organism-based
# [10] = Volume of distribution at steady state in CD1 mouse at 0.5 mg/kg, iv administered as bolus dose measured up to 7 hrs by UPLC/MS/MS spectrometry analysis; format: ADME, organism-based; conditions: in vivo, read-out: Vdss
# [11] = Intrinsic clearance in rat liver microsomes assessed per gram of liver; format: ADME
# [12] = Fraction unbound in mouse plasma; format: ADME, cell-free
# [13] = Fraction unbound in rat plasma; format: ADME, cell-free
# [14] = Blood clearance in Sprague-Dawley rat at 1 mg/kg, iv administered as bolus dose measured up to 20 hrs by UPLC/MS/MS spectrometry analysis; format: ADME, organism-based
# [15] = Cmax in Balb-c nu/nu mouse at 10 mg/kg, po measured up to 7 hrs by UPLC/MS/MS spectrometry analysis; format: ADME, organism-based; parameters: dose 10 mg/kg, route oral; conditions: in vivo
# [16] = Cmax in Balb-c nu/nu mouse at 30 mg/kg, po measured up to 7 hrs by UPLC/MS/MS spectrometry analysis; format: ADME, organism-based; parameters: dose 30 mg/kg, route oral; conditions: in vivo
# [17] = Cmax in Balb-c nu/nu mouse at 100 mg/kg, po measured up to 7 hrs by UPLC/MS/MS spectrometry analysis; format: ADME, organism-based; parameters: dose 100 mg/kg, route oral; conditions: in vivo
# [18] = AUC in Balb-c nu/nu mouse at 10 mg/kg, po measured up to 7 hrs by UPLC/MS/MS spectrometry analysis; format: ADME, organism-based; parameters: time < 7 hr, dose 10 mg/kg, route oral; conditions: in vivo
# [19] = AUC in Balb-c nu/nu mouse at 30 mg/kg, po measured up to 7 hrs by UPLC/MS/MS spectrometry analysis; format: ADME, organism-based; parameters: time < 7 hr, dose 30 mg/kg, route oral; conditions: in vivo
# [20] = AUC in Balb-c nu/nu mouse at 100 mg/kg, po measured up to 7 hrs by UPLC/MS/MS spectrometry analysis; format: ADME, organism-based; parameters: dose 100 mg/kg, time < 7 hr, route oral; conditions: in vivo
# [21] = Half life in Balb-c nu/nu mouse blood at 10 mg/kg, po measured up to 7 hrs by UPLC/MS/MS spectrometry analysis; format: ADME, organism-based
# [22] = Half life in Balb-c nu/nu mouse blood at 30 mg/kg, po measured up to 7 hrs by UPLC/MS/MS spectrometry analysis; format: ADME, organism-based
# [23] = Half life in Balb-c nu/nu mouse blood at 100 mg/kg, po measured up to 7 hrs by UPLC/MS/MS spectrometry analysis; format: ADME, organism-based
# [24] = Half life in Sprague-Dawley rat blood at 1 mg/kg, iv administered as bolus dose or 3 mg/kg, po administered via gastric gavage measured up to 20 hrs by UPLC/MS/MS spectrometry analysis; format: ADME, organism-based
# Mus musculus [25] = assay: Toxicity in Balb-c nu/nu mouse at 100 mg/kg, po bid administered for 5 days; format: organism-based; conditions: in vivo, 120 h
# Mus musculus [26] = assay: Reduction in plasma LPA C18:1 levels in Balb-c nu/nu mouse xenografted with human MDA-MB-231-luc cells at 30 to 100 mg/kg, po by UPLC/MS/MS analysis relative to control; format: functional
# Mus musculus [27] = assay: Reduction in plasma LPA C20:4 levels in Balb-c nu/nu mouse xenografted with human MDA-MB-231-luc cells at 30 to 100 mg/kg, po by UPLC/MS/MS analysis relative to control; format: functional
# Mus musculus [28] = assay: Reduction in plasma LPA C16:0 levels in Balb-c nu/nu mouse xenografted with human MDA-MB-231-luc cells at 30 to 100 mg/kg, po by UPLC/MS/MS analysis relative to control; format: functional
# Mus musculus [29] = assay: Reduction in plasma LPA C18:2 levels in Balb-c nu/nu mouse xenografted with human MDA-MB-231-luc cells at 30 to 100 mg/kg, po by UPLC/MS/MS analysis relative to control; format: functional
# Autotaxin [30] = target: T1, Autotaxin; assay: Inhibition of ATX in human plasma assessed as decrease in LPA C18:1 levels after 24 hrs by horseradish peroxidase/choline oxidase-coupled assay
# in vivo [31] = conditions: Balb-c nu/nu, mouse, blood, po, 30 mg/kg
# in vivo [32] = conditions: Balb-c nu/nu, mouse, blood, po, 100 mg/kg
# in vivo [33] = conditions: Sprague-Dawley, rat, po, 3 mg/kg
# Mus musculus [34] = species: Mus musculus; assay: animal or person; conditions: Balb-c, Plasma
# Description: Reduction in plasma LPA C18:1 levels in po dosed Balb-c nu/nu mouse xenografted with human MDA-MB-231-luc cells by UPLC/MS/MS analysis
# Mus musculus [35] = species: Mus musculus; assay: animal or person; conditions: Balb-c, Plasma; remark: listed apart in the source
# Description: Reduction in plasma LPA C20:4 levels in po dosed Balb-c nu/nu mouse xenografted with human MDA-MB-231-luc cells by UPLC/MS/MS analysis
# Mus musculus [36] = species: Mus musculus; assay: animal or person; conditions: Balb-c, Plasma; remark: listed apart in the source
# Description: Reduction in plasma LPA C16:0 levels in po dosed Balb-c nu/nu mouse xenografted with human MDA-MB-231-luc cells by UPLC/MS/MS analysis
# Mus musculus [37] = species: Mus musculus; assay: animal or person; conditions: Balb-c, Plasma; remark: listed apart in the source
# Description: Reduction in plasma LPA C18:2 levels in po dosed Balb-c nu/nu mouse xenografted with human MDA-MB-231-luc cells by UPLC/MS/MS analysis
structure (smiles),measurement,setting,value
COc1ccc(Cn2c(CCC(=O)N[C@@H](C)c3ccc(Cl)cc3)nc3cccnc32)cc1,IC50,Autotaxin [1],215 nM
C[C@H](NC(=O)NCc1nc2cccnc2n1Cc1ccc(F)cc1)c1ccc(F)cc1,IC50,Autotaxin [1],1050 nM
same,CLH,[2],10 mL/min/g
same,half-life,[3],9 min
same,clearance,[4],67 mL/min/kg
same,Vd,[5],0.3 L/kg
C[C@H](NC(=O)CCc1nc2cccnc2n1Cc1ccc(OC(F)F)cc1)c1ccc(Cl)cc1,IC50,Autotaxin [6],2 nM
same,IC50,Autotaxin [1],44 nM
same,CLH,[2],52.8 mL/min/g
same,half-life,[3],22.2 min
same,clearance,[4],62 mL/min/kg
same,Vd,[5],0.4 L/kg
O=C(CCc1nc2cccnc2n1Cc1ccccc1)NCc1ccc(Cl)cc1,IC50,Autotaxin [1],5800 nM
same,CLH,[2],15.3 mL/min/g
C[C@H](NC(=O)COc1nc2cccnc2n1Cc1ccc(F)cc1)c1ccc(F)cc1,IC50,Autotaxin [1],821 nM
same,CLH,[2],15.6 mL/min/g
CS(=O)(=O)c1ccc(CNC(=O)CCc2nc3cccnc3n2Cc2ccccc2)cc1,IC50,Autotaxin [6],6770 nM
O=C(CCc1nc2cccnc2n1Cc1ccccc1)NCc1ccccc1F,IC50,Autotaxin [6],1250 nM
O=C(CCc1nc2cccnc2n1Cc1ccccc1)NCC1CCCCC1,IC50,Autotaxin [6],444 nM
same,IC50,Autotaxin [1],9700 nM
same,CLH,[2],30.8 mL/min/g
same,CLH,[7],17.4 mL/min/g
O=C(CCc1nc2cccnc2n1Cc1ccccc1)NCc1ccc(F)cc1,CLH,[2],23.9 mL/min/g
same,CLH,[7],41.2 mL/min/g
COc1cccc(CNC(=O)CCc2nc3cccnc3n2Cc2ccccc2)c1,IC50,Autotaxin [6],2970 nM
C[C@H](NC(=O)CCc1nc2ccncc2n1Cc1ccc(OC(F)(F)F)cc1)c1ccc(F)cc1,IC50,Autotaxin [1],32 nM
O=C(CCc1nc2cccnc2n1Cc1ccccc1)NCc1ccsc1,IC50,Autotaxin [6],2430 nM
C[C@H](NC(=O)COc1nc2cccnc2n1Cc1ccc(OC(F)(F)F)cc1)c1ccc(Cl)cc1,IC50,Autotaxin [1],99 nM
same,CLH,[2],10.8 mL/min/g
same,half-life,[8],12 min
same,clearance,[9],78 mL/min/kg
same,Vd,[10],0.4 L/kg
C[C@H](NC(=O)C[S+]([O-])c1nc2cccnc2n1Cc1ccc(OC(F)(F)F)cc1)c1ccc(F)cc1 (stereo in doubt; 26a),IC50,Autotaxin [6],10 nM
same,IC50,Autotaxin [1],178 nM
same,CLH,[2],28.6 mL/min/g
same,half-life,[3],13.2 min
same,clearance,[4],82 mL/min/kg
same,Vd,[5],0.2 L/kg
C[C@H](NC(=O)C[S+]([O-])c1nc2cccnc2n1Cc1ccc(OC(F)(F)F)cc1)c1ccc(F)cc1 (stereo in doubt; 26b),IC50,Autotaxin [6],178 nM
same,IC50,Autotaxin [1],207 nM
same,CLH,[2],19.8 mL/min/g
C[C@H](NC(=O)CCc1nc2cccnc2n1Cc1ccc(OC(F)(F)F)cc1)c1ccc(Cl)cc1 [CAMBRITAXESTAT],IC50,Autotaxin [6],1 nM
same,IC50,Autotaxin [1],14 to 24 nM
same,CLH,[2],44.1 mL/min/g
same,CLH,[7],9.4 mL/min/g
same,half-life,[3],60 min
same,clearance,[4],41 mL/min/kg
same,Vd,[5],1.3 L/kg
same,CLH,[11],15 mL/min/g
same,fraction unbound,[12],0.018
same,fraction unbound,[13],0.02
same,clearance,[14],19 mL/min/kg
same,Cmax,[15],3.8 µM
same,Cmax,[16],10.9 µM
same,Cmax,[17],18.1 µM
same,AUC at 7 h,[18],3.2 µM·h
same,AUC at 7 h,[19],15.2 µM·h
same,AUC at 7 h,[20],59.3 µM·h
same,half-life,[21],84 min
same,half-life,[22],54 min
same,half-life,[23],78 min
same,half-life,[24],324 min
same,Activity,Mus musculus [25],Non-Toxic
same,%max,Mus musculus [26],89 - 93%
same,%max,Mus musculus [27],89 - 93%
same,%max,Mus musculus [28],89 - 93%
same,%max,Mus musculus [29],89 - 93%
same,IC50,Autotaxin [30],38 nM
same,bioavailability at 7 h,in vivo [31],64%
same,bioavailability at 7 h,in vivo [32],75%
same,bioavailability at 20 h,in vivo [33],28%
same,EC50,Mus musculus [34],13 nM
same,EC50,Mus musculus [35],46 nM
same,EC50,Mus musculus [36],8 nM
same,EC50,Mus musculus [37],30 nM
